# In ChEMBL document CHEMBL6120936, “Autophagy modulation in cancer therapy: Challenges coexist with opportunities” (Eur J Med Chem, 2024):
# Legend:
# [1] = biological target: T1, Serine/threonine-protein kinase ULK1 (Homo sapiens, UniProt O75385); experiment: Agonist activity at ULK1 (unknown origin)
# T1 sequence (O75385 whole entry): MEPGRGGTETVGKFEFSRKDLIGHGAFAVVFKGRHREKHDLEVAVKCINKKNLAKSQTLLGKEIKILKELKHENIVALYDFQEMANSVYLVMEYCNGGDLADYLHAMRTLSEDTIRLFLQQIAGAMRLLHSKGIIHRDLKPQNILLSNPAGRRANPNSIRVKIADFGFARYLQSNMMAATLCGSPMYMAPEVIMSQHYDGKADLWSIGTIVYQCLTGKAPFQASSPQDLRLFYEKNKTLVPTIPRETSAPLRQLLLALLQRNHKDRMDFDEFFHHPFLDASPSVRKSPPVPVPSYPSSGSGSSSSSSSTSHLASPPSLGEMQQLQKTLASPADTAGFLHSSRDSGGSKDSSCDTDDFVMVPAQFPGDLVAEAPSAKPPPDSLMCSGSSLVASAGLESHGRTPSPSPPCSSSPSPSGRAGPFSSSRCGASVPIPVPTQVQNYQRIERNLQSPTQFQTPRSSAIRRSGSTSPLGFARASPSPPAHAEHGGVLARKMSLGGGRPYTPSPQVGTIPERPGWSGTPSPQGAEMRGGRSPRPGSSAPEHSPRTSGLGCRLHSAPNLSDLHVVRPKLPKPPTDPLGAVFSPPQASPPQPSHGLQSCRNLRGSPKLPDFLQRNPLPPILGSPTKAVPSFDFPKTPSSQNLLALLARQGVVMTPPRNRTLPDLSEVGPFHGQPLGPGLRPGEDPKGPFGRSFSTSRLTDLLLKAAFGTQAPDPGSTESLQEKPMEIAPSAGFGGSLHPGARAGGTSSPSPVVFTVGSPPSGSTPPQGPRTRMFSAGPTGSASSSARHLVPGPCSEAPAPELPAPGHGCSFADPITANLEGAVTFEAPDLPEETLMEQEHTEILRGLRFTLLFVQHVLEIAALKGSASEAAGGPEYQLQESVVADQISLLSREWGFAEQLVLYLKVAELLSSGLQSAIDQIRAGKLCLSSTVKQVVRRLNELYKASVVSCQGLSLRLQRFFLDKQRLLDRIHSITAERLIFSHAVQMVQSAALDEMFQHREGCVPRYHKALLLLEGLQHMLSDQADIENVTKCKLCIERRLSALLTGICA
# [2] = biological target: Phosphatidylinositol 4,5-bisphosphate 3-kinase catalytic subunit gamma isoform (Homo sapiens, UniProt P48736); experiment: Inhibition of PI3K p120gamma (unknown origin)
# Phosphatidylinositol 4,5-bisphosphate 3-kinase catalytic subunit gamma isoform, sequence (P48736 whole entry, canonical isoform): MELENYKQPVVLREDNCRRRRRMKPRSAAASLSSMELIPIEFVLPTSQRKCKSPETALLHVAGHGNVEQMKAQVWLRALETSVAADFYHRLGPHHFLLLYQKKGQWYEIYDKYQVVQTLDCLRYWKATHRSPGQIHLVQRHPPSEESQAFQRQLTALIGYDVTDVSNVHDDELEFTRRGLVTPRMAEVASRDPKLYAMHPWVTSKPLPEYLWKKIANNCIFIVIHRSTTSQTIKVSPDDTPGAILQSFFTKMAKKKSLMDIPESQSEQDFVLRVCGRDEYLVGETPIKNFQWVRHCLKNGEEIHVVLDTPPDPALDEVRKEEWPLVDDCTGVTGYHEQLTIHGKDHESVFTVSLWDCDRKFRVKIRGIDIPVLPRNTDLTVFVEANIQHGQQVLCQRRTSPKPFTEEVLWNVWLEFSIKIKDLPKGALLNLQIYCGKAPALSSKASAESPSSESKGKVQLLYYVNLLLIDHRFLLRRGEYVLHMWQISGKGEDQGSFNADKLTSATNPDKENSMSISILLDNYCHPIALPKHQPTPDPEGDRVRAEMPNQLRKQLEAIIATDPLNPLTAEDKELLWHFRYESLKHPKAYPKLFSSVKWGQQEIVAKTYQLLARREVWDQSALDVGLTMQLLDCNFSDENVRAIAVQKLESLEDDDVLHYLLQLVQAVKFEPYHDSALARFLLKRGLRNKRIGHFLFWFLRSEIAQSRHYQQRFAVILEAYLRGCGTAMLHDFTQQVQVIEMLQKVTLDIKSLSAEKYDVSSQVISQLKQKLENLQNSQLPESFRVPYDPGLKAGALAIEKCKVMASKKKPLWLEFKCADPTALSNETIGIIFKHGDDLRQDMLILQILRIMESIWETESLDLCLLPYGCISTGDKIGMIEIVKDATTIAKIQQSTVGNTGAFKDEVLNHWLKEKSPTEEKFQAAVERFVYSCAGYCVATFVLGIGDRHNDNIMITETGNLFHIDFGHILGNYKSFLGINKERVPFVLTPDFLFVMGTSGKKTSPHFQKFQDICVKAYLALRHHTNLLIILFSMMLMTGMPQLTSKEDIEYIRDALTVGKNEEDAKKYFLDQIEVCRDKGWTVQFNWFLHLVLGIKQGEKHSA
# [3] = biological target: Phosphatidylinositol 4,5-bisphosphate 3-kinase catalytic subunit alpha isoform (Homo sapiens, UniProt P42336); experiment: Inhibition of PI3K-p110alpha (unknown origin) extracted from baculovirus-infected Sf9 cells incubated for 1 hr by microbeta counter analysis
# Phosphatidylinositol 4,5-bisphosphate 3-kinase catalytic subunit alpha isoform, sequence (P42336 whole entry, canonical isoform): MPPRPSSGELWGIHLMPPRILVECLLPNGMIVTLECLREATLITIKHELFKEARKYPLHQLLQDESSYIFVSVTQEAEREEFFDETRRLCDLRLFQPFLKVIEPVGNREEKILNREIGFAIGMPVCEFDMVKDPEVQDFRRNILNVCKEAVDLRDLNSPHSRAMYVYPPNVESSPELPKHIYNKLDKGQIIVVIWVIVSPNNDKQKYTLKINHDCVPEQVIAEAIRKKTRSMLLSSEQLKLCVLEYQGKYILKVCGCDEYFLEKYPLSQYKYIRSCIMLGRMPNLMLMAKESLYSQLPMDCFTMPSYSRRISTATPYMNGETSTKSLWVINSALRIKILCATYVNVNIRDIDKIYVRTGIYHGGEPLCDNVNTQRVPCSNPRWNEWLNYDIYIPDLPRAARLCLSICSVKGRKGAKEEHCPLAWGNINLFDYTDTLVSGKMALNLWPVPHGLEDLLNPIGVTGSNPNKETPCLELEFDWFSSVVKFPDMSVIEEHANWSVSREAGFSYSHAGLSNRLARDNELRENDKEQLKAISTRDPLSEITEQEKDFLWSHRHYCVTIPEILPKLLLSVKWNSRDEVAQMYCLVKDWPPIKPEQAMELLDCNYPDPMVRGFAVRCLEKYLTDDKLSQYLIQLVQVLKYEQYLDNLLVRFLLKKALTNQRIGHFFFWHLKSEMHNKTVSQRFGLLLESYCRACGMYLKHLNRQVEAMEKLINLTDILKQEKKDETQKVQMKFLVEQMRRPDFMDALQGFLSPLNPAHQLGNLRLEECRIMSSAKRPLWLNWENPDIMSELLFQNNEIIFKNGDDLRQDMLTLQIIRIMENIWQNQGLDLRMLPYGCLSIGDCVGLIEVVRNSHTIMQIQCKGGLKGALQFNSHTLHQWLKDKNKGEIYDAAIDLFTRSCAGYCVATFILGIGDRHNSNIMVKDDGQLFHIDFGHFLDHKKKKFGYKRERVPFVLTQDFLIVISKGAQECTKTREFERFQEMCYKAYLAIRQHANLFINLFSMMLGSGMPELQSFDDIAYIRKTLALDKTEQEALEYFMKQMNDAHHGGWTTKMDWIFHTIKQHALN
# [4] = biological target: T2, Phosphatidylinositol 4,5-bisphosphate 3-kinase catalytic subunit delta isoform (Homo sapiens, UniProt O00329); experiment: Inhibition of PI3Kdelta (unknown origin)
# T2 sequence (O00329 whole entry): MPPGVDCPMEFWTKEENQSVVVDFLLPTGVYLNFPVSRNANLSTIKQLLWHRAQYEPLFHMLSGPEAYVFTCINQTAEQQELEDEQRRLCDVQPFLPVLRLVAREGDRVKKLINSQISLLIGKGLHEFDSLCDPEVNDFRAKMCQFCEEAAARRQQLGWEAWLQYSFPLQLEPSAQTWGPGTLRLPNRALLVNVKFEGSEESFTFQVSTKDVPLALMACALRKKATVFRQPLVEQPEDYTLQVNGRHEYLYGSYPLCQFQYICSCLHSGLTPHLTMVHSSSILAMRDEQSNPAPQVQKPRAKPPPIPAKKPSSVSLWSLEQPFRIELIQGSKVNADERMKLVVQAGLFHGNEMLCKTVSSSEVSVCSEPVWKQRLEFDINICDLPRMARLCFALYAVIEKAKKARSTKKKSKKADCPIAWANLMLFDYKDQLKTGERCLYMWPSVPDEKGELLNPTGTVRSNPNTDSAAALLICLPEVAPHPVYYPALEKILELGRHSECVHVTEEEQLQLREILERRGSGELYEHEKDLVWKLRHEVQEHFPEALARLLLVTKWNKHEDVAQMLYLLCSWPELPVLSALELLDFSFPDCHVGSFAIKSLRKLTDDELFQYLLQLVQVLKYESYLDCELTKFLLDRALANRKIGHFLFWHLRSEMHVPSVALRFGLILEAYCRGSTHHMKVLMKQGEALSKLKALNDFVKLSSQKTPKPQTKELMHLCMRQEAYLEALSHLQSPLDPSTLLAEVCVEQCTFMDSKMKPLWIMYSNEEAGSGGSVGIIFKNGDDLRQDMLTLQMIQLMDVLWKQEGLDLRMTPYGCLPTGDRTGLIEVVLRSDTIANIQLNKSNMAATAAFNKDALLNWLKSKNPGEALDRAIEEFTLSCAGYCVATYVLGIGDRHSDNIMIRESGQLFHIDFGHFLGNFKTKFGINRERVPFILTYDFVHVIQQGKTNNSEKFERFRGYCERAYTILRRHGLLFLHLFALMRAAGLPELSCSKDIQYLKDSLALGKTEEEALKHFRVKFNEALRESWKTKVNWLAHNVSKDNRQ
# [5] = Agonist activity at AMPK (unknown origin); set-up: species or system Homo sapiens
# [6] = biological target: T3, Serine/threonine-protein kinase ULK2 (Homo sapiens, UniProt Q8IYT8); experiment: Inhibition of ULK2 (unknown origin)
# T3 sequence (Q8IYT8 whole entry): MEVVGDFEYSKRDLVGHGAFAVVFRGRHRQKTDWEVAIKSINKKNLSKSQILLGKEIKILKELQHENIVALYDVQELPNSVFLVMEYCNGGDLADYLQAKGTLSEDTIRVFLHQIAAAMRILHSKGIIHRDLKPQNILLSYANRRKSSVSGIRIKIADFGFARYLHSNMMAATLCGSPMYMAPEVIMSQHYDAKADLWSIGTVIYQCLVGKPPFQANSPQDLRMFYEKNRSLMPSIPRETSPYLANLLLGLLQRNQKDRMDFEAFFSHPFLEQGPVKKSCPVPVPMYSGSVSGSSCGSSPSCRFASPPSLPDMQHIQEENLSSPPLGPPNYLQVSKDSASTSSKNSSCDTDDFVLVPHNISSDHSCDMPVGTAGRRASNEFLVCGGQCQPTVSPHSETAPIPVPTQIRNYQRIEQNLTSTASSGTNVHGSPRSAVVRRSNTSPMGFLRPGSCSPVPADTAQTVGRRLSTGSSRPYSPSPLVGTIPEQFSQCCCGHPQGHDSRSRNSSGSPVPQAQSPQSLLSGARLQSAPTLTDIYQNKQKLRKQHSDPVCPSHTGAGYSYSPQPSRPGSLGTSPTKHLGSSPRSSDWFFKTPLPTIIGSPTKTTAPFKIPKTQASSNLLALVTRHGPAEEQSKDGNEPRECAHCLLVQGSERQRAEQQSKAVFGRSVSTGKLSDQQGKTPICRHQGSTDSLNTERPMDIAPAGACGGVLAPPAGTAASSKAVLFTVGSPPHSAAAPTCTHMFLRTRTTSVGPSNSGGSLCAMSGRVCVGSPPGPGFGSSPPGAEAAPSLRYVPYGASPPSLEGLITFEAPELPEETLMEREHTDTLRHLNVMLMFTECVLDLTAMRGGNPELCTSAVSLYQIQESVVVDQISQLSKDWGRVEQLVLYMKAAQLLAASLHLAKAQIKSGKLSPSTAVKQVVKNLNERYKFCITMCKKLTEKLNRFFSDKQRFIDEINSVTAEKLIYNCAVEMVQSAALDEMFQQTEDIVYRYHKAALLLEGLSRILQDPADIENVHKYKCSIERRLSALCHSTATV
# [7] = biological target: Mitogen-activated protein kinase 3 (Homo sapiens, UniProt P27361); experiment: Inhibition of ERK1 (unknown origin)
# Mitogen-activated protein kinase 3, sequence (P27361 whole entry): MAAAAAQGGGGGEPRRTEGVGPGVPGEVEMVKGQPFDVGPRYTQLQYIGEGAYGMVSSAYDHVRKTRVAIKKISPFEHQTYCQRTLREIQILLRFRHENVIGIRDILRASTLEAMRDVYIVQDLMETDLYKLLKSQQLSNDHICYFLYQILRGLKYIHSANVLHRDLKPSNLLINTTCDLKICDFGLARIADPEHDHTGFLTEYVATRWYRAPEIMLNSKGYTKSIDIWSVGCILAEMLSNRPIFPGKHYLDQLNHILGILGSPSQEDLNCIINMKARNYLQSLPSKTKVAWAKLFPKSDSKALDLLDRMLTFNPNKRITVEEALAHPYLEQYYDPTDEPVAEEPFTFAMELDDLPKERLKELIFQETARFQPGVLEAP
# [8] = Binding affinity to AMPK (unknown origin) assessed as inhibition constant; set-up: species or system Homo sapiens
smiles,measurement,setting,value
O=C(Nc1ccc(F)cc1F)[C@H](NC(=S)Nc1cc(C(F)(F)F)cc(C(F)(F)F)c1)c1ccccc1,EC50,[1],24.1 nM
C=CCN(/C=C1/C(=O)O[C@H](COC)[C@@]2(C)C1=C(O)C(=O)C1=C2[C@H](OC(C)=O)C[C@]2(C)C(=O)CC[C@@H]12)CC=C [SONOLISIB],IC50,[2],1 nM
same,IC50,[3],0.1 nM
same,IC50,[4],2.9 nM
CC(C)NC[C@@H](C(=O)N1CCN(c2ncnc3c2[C@H](C)C[C@H]3O)CC1)c1ccc(Cl)cc1 [IPATASERTIB],IC50,[3],1400 nM
Cc1nc(-c2cn3c(n2)-c2ccc(-c4cnn(C(C)(C)C(N)=O)c4)cc2OCC3)n(C(C)C)n1 [TASELISIB],IC50,[2],0.91 nM
N#Cc1c(O)c2c(-c3ccc(-c4ccccc4O)cc3)csc2[nH]c1=O,EC50,[5],800 nM
N#Cc1c(O)c2c(-c3ccccc3)csc2[nH]c1=O,EC50,[5],38000 nM
CCc1cc(N2CCN(C)CC2)ccc1Nc1ncc(C(F)(F)F)c(NCCCN2CCOCCC2=O)n1 [INLEXISERTIB],IC50,[6],9 nM
COc1ccc([C@H]2OC[C@H]3[C@@H]2CO[C@@H]3c2cc(OC)c(OC)c(OC)c2)cc1OC,IC50,[7],87 nM
c1cc(-c2cnn3cc(-c4ccc(OCCN5CCCCC5)cc4)cnc23)ccn1 [DORSOMORPHIN],Ki,[8],109 nM
